Experimental data as given in US12060409B2, “Short cyclic peptides for the treatment of Graves' disease” (priority 2018, dated 2024).
Peptide text beside a SMILES is read from it.

Columns and labels:
[1] = test system: TSHR-immunized diseased mice; details: previous study (8); cited from earlier work
[2] = test system: immunologically naïve mice; assay: Studies in immunologically naive mice: 6 monthly IV administrations; format: in vivo, BALB/c mice; details: 1 mg/kg bw IV, 6 monthly administrations
Protocol: BALB/c mice were adapted for at least one week to start experiments at the age of 12 weeks. Animals were kept as described before. This study was approved by the local animal welfare authority and Ethics committee at the Regierung von Oberbayern (Government of Upper Bavaria) in Munich, Germany (no. 55.2-1-54-2532.0-32-15), and carried out in accordance to the European Commission guidelines.
Peptides (1 mg/kg body weight) or NaCl vehicle control were given by IV injection into a tail vein of these naïve mice (n=6 per group), and then continued at 4-weekly intervals for 6 months, as described before for the therapeutic study in immunized mice. Serum samples were taken at identical intervals.

Row | Molecule | Improvement of disease parameters [1] | Tolerability / clinical findings [2]
1 | SPPCECHQEEDFRVTCKDIQRIPS (cyclic; Amino acid sequence derived from human thyrotropin-TSH receptor (TSHR)) [peptide 829] | small, non-significant trends to improve disease parameters | 
2 | CC(C)C[C@@H]1NC(=O)[C@H](Cc2ccc(O)cc2)NC(=O)[C@H](C(C)C)NC(=O)[C@H](C)NC(=O)[C@H](CC(=O)O)NC(=O)[C@H](CC(C)C)NC(=O)[C@H](CCCCN)NC(=O)[C@H]([C@@H](C)O)NC(=O)CNC(=O)[C@H](CCCCN)NC(=O)[C@H](CC(N)=O)NC(=O)[C@H](CCCCN)NC(=O)[C@H](CC(N)=O)NC1=O [peptide 836 13mer, TKLDAVYLNKNKG] (HELM PEPTIDE1{A.V.Y.L.N.K.N.K.G.T.K.L.D}$PEPTIDE1,PEPTIDE1,1:R1-13:R2$$$V2.0) |  | no pathological clinical findings were observed
3 | CC(C)[C@@H]1NC(=O)[C@H](CCCNC(=N)N)NC(=O)[C@H](Cc2ccccc2)NC(=O)[C@H](CC(=O)O)NC(=O)[C@H](CCC(=O)O)NC(=O)[C@H](CCC(=O)O)NC(=O)[C@H](CCC(N)=O)NC(=O)[C@H](Cc2c[nH]cn2)NC(=O)[C@@H](N)CSSC[C@@H](C(=O)O)NC(=O)[C@H]([C@@H](C)O)NC1=O [peptide 19, CHQEEDFRVTC] (HELM PEPTIDE1{C.H.Q.E.E.D.F.R.V.T.C}$PEPTIDE1,PEPTIDE1,1:R3-11:R3$$$V2.0) |  | no pathological clinical findings were observed
